Assays:
Experiment in all cases: Kinase profiling
Type in all cases: biochemical
EIF2AK3 = molecular target: T1, EIF2AK3 (Homo sapiens, UniProt Q9NZJ5)
T1 sequence (Q9NZJ5 30-1116): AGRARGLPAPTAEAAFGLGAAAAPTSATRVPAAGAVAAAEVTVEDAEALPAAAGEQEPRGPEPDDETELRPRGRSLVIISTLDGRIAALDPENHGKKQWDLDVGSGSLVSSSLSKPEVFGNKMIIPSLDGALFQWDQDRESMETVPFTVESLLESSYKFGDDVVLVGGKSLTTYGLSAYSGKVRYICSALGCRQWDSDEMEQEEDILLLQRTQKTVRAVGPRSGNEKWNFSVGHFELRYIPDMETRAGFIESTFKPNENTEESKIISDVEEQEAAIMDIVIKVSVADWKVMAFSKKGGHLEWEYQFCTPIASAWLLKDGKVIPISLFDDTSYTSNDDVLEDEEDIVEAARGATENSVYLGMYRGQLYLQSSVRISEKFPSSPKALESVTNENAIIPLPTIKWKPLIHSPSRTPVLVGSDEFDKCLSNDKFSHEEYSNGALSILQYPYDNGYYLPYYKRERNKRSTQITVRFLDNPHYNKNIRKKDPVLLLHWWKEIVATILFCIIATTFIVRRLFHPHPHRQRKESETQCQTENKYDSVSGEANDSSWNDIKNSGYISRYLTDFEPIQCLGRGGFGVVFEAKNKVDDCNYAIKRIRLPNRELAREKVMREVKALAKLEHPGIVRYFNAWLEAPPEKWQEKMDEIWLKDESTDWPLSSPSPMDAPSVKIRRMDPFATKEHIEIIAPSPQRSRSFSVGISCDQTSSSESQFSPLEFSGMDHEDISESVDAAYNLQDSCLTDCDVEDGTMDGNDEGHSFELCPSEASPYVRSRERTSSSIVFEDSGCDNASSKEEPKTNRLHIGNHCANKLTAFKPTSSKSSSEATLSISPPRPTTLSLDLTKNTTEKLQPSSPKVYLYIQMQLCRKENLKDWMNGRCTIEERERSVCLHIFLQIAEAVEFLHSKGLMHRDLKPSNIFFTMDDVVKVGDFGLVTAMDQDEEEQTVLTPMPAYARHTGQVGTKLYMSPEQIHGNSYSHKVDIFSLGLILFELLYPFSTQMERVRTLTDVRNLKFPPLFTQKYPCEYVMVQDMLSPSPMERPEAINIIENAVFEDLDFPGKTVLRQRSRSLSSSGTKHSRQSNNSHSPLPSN

IGF-1R = IGF-1R (Homo sapiens, UniProt P08069)
MNK2 = MNK2 (Homo sapiens, UniProt Q9HBH9)
NUAK1 = molecular target: T2, NUAK1 (Homo sapiens, UniProt O60285)
T2 sequence (O60285 1-661): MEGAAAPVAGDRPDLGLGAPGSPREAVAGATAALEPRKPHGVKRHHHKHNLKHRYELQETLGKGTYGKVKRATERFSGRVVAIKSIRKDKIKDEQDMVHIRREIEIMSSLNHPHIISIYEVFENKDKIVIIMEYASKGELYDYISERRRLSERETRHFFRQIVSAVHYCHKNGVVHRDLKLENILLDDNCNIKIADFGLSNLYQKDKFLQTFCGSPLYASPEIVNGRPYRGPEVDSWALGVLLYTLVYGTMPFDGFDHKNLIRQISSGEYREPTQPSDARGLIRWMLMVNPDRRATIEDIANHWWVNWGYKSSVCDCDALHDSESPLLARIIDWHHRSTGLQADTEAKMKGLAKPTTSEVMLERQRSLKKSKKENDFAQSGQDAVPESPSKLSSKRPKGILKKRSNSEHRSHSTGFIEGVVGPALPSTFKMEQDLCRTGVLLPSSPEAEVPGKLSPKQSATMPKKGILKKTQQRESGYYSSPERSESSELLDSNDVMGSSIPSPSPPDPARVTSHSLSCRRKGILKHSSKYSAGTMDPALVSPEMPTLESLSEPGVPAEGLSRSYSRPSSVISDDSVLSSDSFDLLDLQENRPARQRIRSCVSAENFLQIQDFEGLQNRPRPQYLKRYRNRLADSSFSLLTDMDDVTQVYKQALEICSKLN

PKC alpha = PKC alpha (Homo sapiens, UniProt P17252)
TAO1 = molecular target: T3, TAO1 (Homo sapiens, UniProt Q7L7X3)
T3 sequence (Q7L7X3 1-1001): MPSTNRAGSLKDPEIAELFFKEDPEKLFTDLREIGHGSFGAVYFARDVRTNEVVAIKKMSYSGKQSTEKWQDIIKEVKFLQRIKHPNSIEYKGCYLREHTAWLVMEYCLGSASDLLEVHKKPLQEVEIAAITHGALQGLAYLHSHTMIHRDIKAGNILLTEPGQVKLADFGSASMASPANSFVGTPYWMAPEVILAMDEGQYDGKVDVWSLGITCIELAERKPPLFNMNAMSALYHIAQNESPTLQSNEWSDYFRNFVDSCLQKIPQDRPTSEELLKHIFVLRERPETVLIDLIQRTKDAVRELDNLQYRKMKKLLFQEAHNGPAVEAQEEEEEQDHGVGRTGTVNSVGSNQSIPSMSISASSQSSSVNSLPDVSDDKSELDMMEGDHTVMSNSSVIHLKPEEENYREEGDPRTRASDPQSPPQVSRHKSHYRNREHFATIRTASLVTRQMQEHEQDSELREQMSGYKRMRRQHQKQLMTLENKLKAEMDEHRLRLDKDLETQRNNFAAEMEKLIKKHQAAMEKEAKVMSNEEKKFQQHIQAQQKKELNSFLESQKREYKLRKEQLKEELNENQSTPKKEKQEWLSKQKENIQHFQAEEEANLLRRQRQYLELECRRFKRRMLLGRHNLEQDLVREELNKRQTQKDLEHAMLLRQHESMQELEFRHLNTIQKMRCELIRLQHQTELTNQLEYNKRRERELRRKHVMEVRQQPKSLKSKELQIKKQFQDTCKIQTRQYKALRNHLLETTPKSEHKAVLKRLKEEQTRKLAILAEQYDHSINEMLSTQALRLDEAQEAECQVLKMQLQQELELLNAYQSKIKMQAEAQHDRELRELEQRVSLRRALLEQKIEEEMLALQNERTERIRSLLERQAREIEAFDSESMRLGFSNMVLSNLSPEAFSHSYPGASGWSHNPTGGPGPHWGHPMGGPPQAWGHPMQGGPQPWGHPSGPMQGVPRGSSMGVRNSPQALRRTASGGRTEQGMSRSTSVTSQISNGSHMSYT

Sequence of IGF-1R (P08069 31-1367): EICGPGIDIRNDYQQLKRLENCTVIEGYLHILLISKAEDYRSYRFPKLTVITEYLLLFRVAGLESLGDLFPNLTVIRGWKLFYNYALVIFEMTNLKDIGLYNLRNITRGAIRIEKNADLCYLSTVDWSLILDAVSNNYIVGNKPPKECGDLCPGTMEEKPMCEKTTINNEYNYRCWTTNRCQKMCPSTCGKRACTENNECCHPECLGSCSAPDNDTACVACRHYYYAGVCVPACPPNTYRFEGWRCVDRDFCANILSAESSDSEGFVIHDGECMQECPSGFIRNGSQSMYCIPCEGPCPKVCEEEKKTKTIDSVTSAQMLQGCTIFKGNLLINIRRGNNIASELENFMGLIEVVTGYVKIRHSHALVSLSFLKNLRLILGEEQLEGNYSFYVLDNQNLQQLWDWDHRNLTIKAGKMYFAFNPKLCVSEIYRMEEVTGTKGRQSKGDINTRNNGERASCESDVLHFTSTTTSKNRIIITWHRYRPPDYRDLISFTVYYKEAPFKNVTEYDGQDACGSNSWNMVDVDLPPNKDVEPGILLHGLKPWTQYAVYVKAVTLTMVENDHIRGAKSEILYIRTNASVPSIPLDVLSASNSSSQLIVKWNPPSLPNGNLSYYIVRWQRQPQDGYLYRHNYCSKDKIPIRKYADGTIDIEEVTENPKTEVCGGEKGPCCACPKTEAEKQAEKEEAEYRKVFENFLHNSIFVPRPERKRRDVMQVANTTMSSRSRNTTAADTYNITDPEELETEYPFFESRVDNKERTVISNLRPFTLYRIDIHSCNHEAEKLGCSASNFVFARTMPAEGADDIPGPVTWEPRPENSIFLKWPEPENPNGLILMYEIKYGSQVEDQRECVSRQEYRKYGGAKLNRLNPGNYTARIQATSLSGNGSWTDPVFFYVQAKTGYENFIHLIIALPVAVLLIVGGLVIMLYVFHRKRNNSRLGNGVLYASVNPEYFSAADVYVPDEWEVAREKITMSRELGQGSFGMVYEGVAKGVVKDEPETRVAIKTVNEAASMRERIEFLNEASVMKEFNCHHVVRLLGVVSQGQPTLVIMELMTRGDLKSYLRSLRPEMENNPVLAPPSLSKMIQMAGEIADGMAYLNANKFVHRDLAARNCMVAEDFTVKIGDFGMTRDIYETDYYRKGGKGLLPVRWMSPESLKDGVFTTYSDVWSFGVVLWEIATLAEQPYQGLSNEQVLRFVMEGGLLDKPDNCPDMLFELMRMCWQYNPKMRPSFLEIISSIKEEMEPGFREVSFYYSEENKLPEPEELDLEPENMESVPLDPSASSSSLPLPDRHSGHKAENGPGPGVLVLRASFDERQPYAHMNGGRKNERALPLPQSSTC
Sequence of MNK2 (Q9HBH9 whole entry): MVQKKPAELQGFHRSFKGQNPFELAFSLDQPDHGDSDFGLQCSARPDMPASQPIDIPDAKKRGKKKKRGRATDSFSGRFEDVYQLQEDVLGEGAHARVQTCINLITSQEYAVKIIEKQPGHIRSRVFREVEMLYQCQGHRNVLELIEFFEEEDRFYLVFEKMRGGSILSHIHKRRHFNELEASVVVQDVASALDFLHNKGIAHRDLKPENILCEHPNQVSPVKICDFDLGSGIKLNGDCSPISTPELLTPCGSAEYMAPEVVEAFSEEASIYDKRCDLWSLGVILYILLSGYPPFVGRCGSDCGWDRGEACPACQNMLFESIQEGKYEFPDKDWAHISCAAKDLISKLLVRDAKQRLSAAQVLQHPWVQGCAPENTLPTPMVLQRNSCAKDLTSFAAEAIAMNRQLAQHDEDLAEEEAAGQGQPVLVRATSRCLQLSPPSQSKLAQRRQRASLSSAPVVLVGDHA

SMILES | remaining activity at 0.1 µM (EIF2AK3) | remaining activity at 1 µM (EIF2AK3) | remaining activity at 0.1 µM (IGF-1R) | remaining activity at 1 µM (IGF-1R) | remaining activity at 0.1 µM (MNK2) | remaining activity at 1 µM (MNK2) | remaining activity at 0.1 µM (NUAK1) | remaining activity at 1 µM (NUAK1) | remaining activity at 0.1 µM (PKC alpha) | remaining activity at 1 µM (PKC alpha) | remaining activity at 1 µM (TAO1) | remaining activity at 0.1 µM (TAO1; 0.1 µM)
COc1cc(Nc2c(C#N)cnc3cc(OCCCN4CCN(C)CC4)c(OC)cc23)c(Cl)cc1Cl [Bosutinib, bosutinib] | 107 ± 5% | 103% | 89 ± 8% | 79 ± 4% | 87 ± 6% | 100 ± 9% | 63 ± 12% | 21 ± 2% | 96 ± 5% | 103 ± 3% | 102 ± 7% | 
Cc1nc(Nc2ncc(C(=O)Nc3c(C)cccc3Cl)s2)cc(N2CCN(CCO)CC2)n1 [Dasatinib] | 106 ± 6% | 113 ± 2% | 107 ± 6% | 98 ± 7% | 97 ± 8% | 106 ± 2% | 119 ± 10% | 118 ± 8% | 98 ± 3% | 105 ± 14% | 95 ± 7% | 120 ± 9%
